{"source": "patent US8202555B2", "about": "“Natural pharmaceutical preparations for increasing albumin” (priority 2009, dated 2012)", "key": {"H37Rv Tubercle Bacillus": {"tested_on": "H37Rv Tubercle Bacillus", "test": "Anti-tubercle bacillus assay in vivo, total lung bacterial count", "conditions": "infected C57BL/6 mice, 25 mg/kg", "description": "Anti-tubercle bacillus assay is tested in vivo. C57BL/6 mice infected with H37Rv Tubercle Bacillus are divided into 6 groups (n=15), one is normal control group, another is positive control group (INH: 25 mg/kg), in other groups, preparations was added into mice's feed, animals are administrated consecutive 16 weeks.\nExperimental staff Killed 5 mice at the 2nd, 4th, 16th week, obtained lung and spleen, put them into 1 ml 7H9 media, grinded and converted them into 1.5 ml Ep tube, doublely diluted 10 times with 7H9 media, then Plated different dilutions onto 7H11 solid media plates for 4w at 37° C., counted tuberculosis colonys.\nCalculation Formula: (initial number of clone×final broth volume×dilution factor 10^3×2×10)+(initial number of clone colony×final broth volume×dilution factor 10^4×2×10)+(initial number of clone colony×final broth volume×dilution factor 10^5×2×10)/3\nTake tissue for pathological examination, weight lung, Calculation Formula: (initial number of clone×final broth volume×dilution factor 10^3×2×10)+(initial number of clone colony×final broth volume×dilution factor 10^4×2×10)+(initial number of clone colony×final broth volume×dilution factor 10^5×2×10)/3×initial organ weight/organ weight in treatment.\nCount number of Lung bacterial or mouse spleen CFU of every mouse in each group, convert data in accordance with 1 g (CFU)."}, "[1]": {"tested_on": "HRSE-resistant (Isoniazid, Rifampicin, Streptomycin, Ethambutol-resistant) tubercle bacillus", "type": "cell-based", "conditions": "serum of mice dosed 25 mg/kg, 10% serum"}, "[2]": {"tested_on": "HR-resistant (Isoniazid and Rifampicin) tubercle bacillus", "type": "cell-based", "conditions": "serum of mice dosed 25 mg/kg, 10% serum"}, "[3]": {"tested_on": "H-resistant (Isoniazid) tubercle bacillus", "type": "cell-based", "conditions": "serum of mice dosed 25 mg/kg, 10% serum"}, "[4]": {"tested_on": "R-resistant (Rifampicin) tubercle bacillus", "type": "cell-based", "conditions": "serum of mice dosed 25 mg/kg, 10% serum"}, "[5]": {"test": "CCl4-induced liver injury (cirrhosis with ascites) in rats: serum proteins, ascites, fibrosis markers", "type": "in vivo, rat", "conditions": "4 weeks"}, "SIV": {"tested_on": "SIV", "conditions": "general statement, no own test; cited from earlier work"}, "[6]": {"test": "Serum albumin in rats with intra-abdominal infection", "type": "in vivo", "conditions": "30 mg/kg", "source_text": "The mice are divided into 6 groups (n=10), i.e., Normal control group, Negative control group, Positive control group (Panaxoside), in the remaining 3 groups, rats were fed with preparation 1 through intragastric administration for 6 days. Under anesthesia by diethyl ether, abdominal cavity of mice were cut open, experimental staff stick a puncture on appendices with needle to cause it infected, then sew up abdominal wound. Continue administration after surgery, animals were executed for collecting their blood to measure serum albumin levels, results are listed in Table 7."}, "[7]": {"test": "Tuberculous pleural effusions and serum albumin in BCG-sensitized guinea pigs", "type": "in vivo", "conditions": "5 mg/kg, 7 days", "source_text": "After sensitizing with BCG for 42 days, guinea pig was administrated with preparations for 7 days, sensitized for 2 days continuously, then measured the level of Pleural Effusion, number of white blood cell and content of serum albumin"}, "[8]": {"conditions": "CCl4 rats with ascites, 0.23 mg/kg intragastrically"}}, "data": [{"compound": "NNC(=O)c1ccncc1", "note": "[INH, Isoniazid]", "values": [{"measurement": "Total Lung bacterical count, Mean lg (CFU ± SEM)", "setting": "H37Rv Tubercle Bacillus; 2 w", "value": "6.12 ± 0.22 lg (CFU)"}, {"measurement": "Total Lung bacterical count, Mean lg (CFU ± SEM)", "setting": "H37Rv Tubercle Bacillus; 4 w", "value": "5.59 ± 0.20 lg (CFU)"}, {"measurement": "Total Lung bacterical count, Mean lg (CFU ± SEM)", "setting": "H37Rv Tubercle Bacillus; 16 w", "value": "2.77 ± 0.16 lg (CFU)"}, {"measurement": "Inhibition rate of serum, HRSE-resistance", "setting": "[1]", "value": 21, "unit": "%"}, {"measurement": "Inhibition rate of serum, HR-resistance", "setting": "[2]", "value": 67, "unit": "%"}, {"measurement": "Inhibition rate of serum, H-resistance", "setting": "[3]", "value": 0, "unit": "%"}, {"measurement": "Inhibition rate of serum, R-resistance", "setting": "[4]", "value": 72, "unit": "%"}]}, {"compound": "COc1cc2c(c(OC)c1OC)-c1ccc(OC)c(=O)cc1[C@@H](NC(C)=O)CC2", "note": "[Colchicine, colchicine]", "values": [{"measurement": "ALB", "setting": "[5]; [8]", "value": "38.1 ± 5.6", "unit": "g/L"}, {"measurement": "ALB/GLB", "setting": "[5]; [8]", "value": "2.8 ± 1.6"}, {"measurement": "GLB", "setting": "[5]; [8]", "value": "17.1 ± 7.7", "unit": "g/L"}, {"measurement": "Incidence (ascites)", "setting": "[5]; CCl4 rats, 0.23 mg/kg", "value": 50, "unit": "%"}, {"measurement": "Animal with ascites n", "setting": "[5]; CCl4 rats, 0.23 mg/kg, of 10 animals", "value": 5}, {"measurement": "HPRO", "setting": "[5]; CCl4 rats, liver, 0.23 mg/kg", "value": "0.29 ± 0.08 mg/g (Liver Weight)"}]}, {"compound": "Cc1cn([C@H]2C[C@H](N=[N+]=[N-])[C@@H](CO)O2)c(=O)[nH]c1=O", "note": "[AZT, Zidovudine]", "values": [{"measurement": "inhibition of infection by SIV", "setting": "SIV", "value": "could not inhibited infection"}]}, {"compound": "Panaxoside", "values": [{"measurement": "ALB", "setting": "[6]", "value": "29.64 ± 2.29", "unit": "g/L"}]}, {"compound": "C[C@@H]1C[C@H]2[C@@H]3CCC4=CC(=O)C=C[C@]4(C)[C@@]3(F)[C@@H](O)C[C@]2(C)[C@@]1(O)C(=O)CO", "note": "[Dexamethasone]", "values": [{"measurement": "ALB", "setting": "[7]", "value": "29.05 ± 3.49", "unit": "g/L"}, {"measurement": "Exudates volumes", "setting": "[7]", "value": "1.2 ± 0.44", "unit": "mL"}, {"measurement": "WBC", "setting": "[7]", "value": "19.1 ± 5.24 ×109"}]}]}
